Earlier results on 1 compound are cited in US9044505B2, “Multimeric biotinidase resistant multimodality probes” (priority 2012, dated 2015).

The test system of the series is (strept)avidin. Particulars: (strept)avidin-biotin interaction.

Consider `O=C(O)CCCC[C@@H]1SC[C@@H]2NC(=O)N[C@@H]21` [biotin], for which the Ka is 10^15 M.
